# Data taken from patent US20110295187A1 (Erchonia Corporation, priority 2004, published 2011).
# Test system: pads of fat near the waist ("love handles")
# Conditions: patient; niacin 500 mg rising to 1500 mg/day orally by tablet over 14 days; 635 nm diode laser, max 10 mW, 30 min scanning sessions
smiles,measurement,value
"O=C(O)c1cccnc1 [niacin, nicotinic acid]",Fat reduction: love handles after treatment,reduced
